These results are taken from PubChem BioAssay (NCI).

The structures appear in SMILES notation.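 Where inhibition never reached the appropriate level, the endpoint shown equals the highest concentration tested. Otherwise, values were interpolated linearly from a five-concentration, 48-hour dose response in 96-well plates. TGI marks complete inhibition of growth.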

Among the test systems are NCI-H522 lung; A549 NSCLC; HOP-92 NSCLC; COLO 205 colon; SN12C renal; MDA-MB-231 breast; T-47D breast; 786-0 renal; BT-549 breast; UACC-257 melanoma; CAKI-1 renal; NCI-H460 lung; LOX IMVI melanoma; SNB-19 CNS; HS 578T breast; SF-539 CNS; SK-OV-3 ovarian.
Holding throughout (assay): NCI tumour cell line growth inhibition, 48 h

With `O=C(NCCCCCCNC(=O)c1cc(-c2ccccc2)nc2ccccc12)c1cc(-c2ccccc2)nc2ccccc12`, the TGI in the assay on NCI-H522 lung, in the assay on A549 NSCLC, in the assay on HOP-92 NSCLC, in the assay with COLO 205 colon, in the assay with SN12C renal and in the assay with MDA-MB-231 breast was over 100 µM throughout. The TGI in the assay on T-47D breast, in the assay with 786-0 renal, in the assay with BT-549 breast, in the assay on UACC-257 melanoma, with CAKI-1 renal and in the assay with NCI-H460 lung was over 100 µM each time. Also, the TGI with LOX IMVI melanoma, in the assay with SNB-19 CNS, in the assay on HS 578T breast, in the assay on SF-539 CNS and with SK-OV-3 ovarian was over 100 µM in each case.

Turning to `CCOC(=O)CCC(NC(=O)c1ccc(OCc2ccc3nc(-c4ccccc4)c(Cl)nc3c2)cc1)C(=O)OCC` (centres undefined), the TGI with NCI-H522 lung was over 31.6 µM; with A549 NSCLC, over 100 µM; with HOP-92 NSCLC it was 25.5 µM; in the assay with COLO 205 colon, over 100 µM; with SN12C renal it was over 100 µM; with MDA-MB-231 breast it was over 67.9 µM. In addition, the TGI was over 31.6 µM in the assay with T-47D breast; over 31.6 µM in the assay on 786-0 renal; over 31.6 µM with BT-549 breast; over 31.6 µM in the assay on UACC-257 melanoma; over 100 µM in the assay on CAKI-1 renal; over 31.6 µM with NCI-H460 lung. The TGI with LOX IMVI melanoma is over 100 µM; with SNB-19 CNS, 31.1 µM; in the assay with HS 578T breast it was over 31.6 µM; in the assay on SF-539 CNS, 28.7 µM; in the assay on SK-OV-3 ovarian, over 100 µM.

As for `CO/N=C(\C)c1cccc(Nc2c3ccccc3nc3occc23)c1`, the TGI in the assay with NCI-H522 lung amounted to 7.64 µM; with A549 NSCLC, 57.3 µM; in the assay on HOP-92 NSCLC it was 43.2 µM; with COLO 205 colon, 17.6 µM; in the assay on SN12C renal, 38 µM; with MDA-MB-231 breast it was 26.1 µM. Besides, the TGI came out at 28.8 µM with T-47D breast; 29.7 µM in the assay with 786-0 renal; 48.8 µM in the assay on BT-549 breast; 25.6 µM in the assay with UACC-257 melanoma; 19.2 µM in the assay with CAKI-1 renal; 23.7 µM with NCI-H460 lung. For the same compound, the TGI was determined as 27.4 µM with LOX IMVI melanoma; 45.5 µM in the assay with SNB-19 CNS; 41 µM in the assay with HS 578T breast; 21.5 µM with SF-539 CNS; 36.4 µM in the assay on SK-OV-3 ovarian.

Consider `CCOC(=O)C(SCCO)C(C(=O)OCC)n1ccc(=O)[nH]c1=O` (centres undefined), for which the TGI was 22.7 µM with NCI-H522 lung; over 100 µM with A549 NSCLC; 69.1 µM with HOP-92 NSCLC; over 59.3 µM with COLO 205 colon; over 100 µM in the assay with SN12C renal; over 82.2 µM in the assay with MDA-MB-231 breast. For the same compound, the TGI with T-47D breast was over 100 µM; in the assay with 786-0 renal it was over 50.6 µM; in the assay on BT-549 breast, over 100 µM; with UACC-257 melanoma, over 100 µM; in the assay on CAKI-1 renal it was 39.5 µM; in the assay with NCI-H460 lung, over 100 µM. Moreover, the TGI in the assay with LOX IMVI melanoma was over 43.8 µM; in the assay with SNB-19 CNS, over 100 µM; with HS 578T breast it was over 100 µM; with SF-539 CNS, over 71.6 µM; in the assay on SK-OV-3 ovarian, over 100 µM.

As to `CC(C)NC(=O)CN1CCN(c2c(O)c3c(c(O)c2Cl)C(=O)C=CC3=O)CC1`, the TGI worked out at 3.33 µM in the assay on NCI-H522 lung; 20.3 µM in the assay with A549 NSCLC; 4.16 µM in the assay on HOP-92 NSCLC; 2.89 µM in the assay with COLO 205 colon; 3.28 µM in the assay on SN12C renal; 4.26 µM in the assay on MDA-MB-231 breast. The TGI in the assay on T-47D breast was 3.67 µM; in the assay on 786-0 renal, 6.14 µM; in the assay with BT-549 breast, 2.85 µM; with UACC-257 melanoma, 3.25 µM; with CAKI-1 renal, 5 µM; in the assay on NCI-H460 lung, 22.1 µM. For the same compound, the TGI was determined as 1.92 µM in the assay on LOX IMVI melanoma; 26.9 µM in the assay with SNB-19 CNS; 6.42 µM in the assay on HS 578T breast; 3.66 µM in the assay on SF-539 CNS; 24.3 µM in the assay with SK-OV-3 ovarian.

For the compound `Nc1onc2c1Cc1c(noc1N)-c1ccccc1-2`, the TGI was over 100 µM in the assay on NCI-H522 lung; over 100 µM in the assay on A549 NSCLC; 94.6 µM in the assay with HOP-92 NSCLC; over 100 µM in the assay with COLO 205 colon; over 100 µM in the assay on SN12C renal; over 100 µM with MDA-MB-231 breast. Besides, the TGI in the assay on T-47D breast is over 100 µM; in the assay with 786-0 renal, over 100 µM; in the assay with BT-549 breast it was 50.4 µM; with UACC-257 melanoma, over 100 µM; in the assay on CAKI-1 renal it was over 100 µM; with NCI-H460 lung, over 100 µM. Moreover, the TGI in the assay with LOX IMVI melanoma was over 100 µM; in the assay with SNB-19 CNS it was over 100 µM; in the assay on HS 578T breast it was 83.8 µM; in the assay on SF-539 CNS it was over 100 µM; in the assay on SK-OV-3 ovarian it was over 100 µM.

Take `N#Cc1c(N)nc(Sc2ccccc2N)c(C#N)c1-c1ccc(Cl)cc1`: the TGI in the assay with NCI-H522 lung was 35.8 µM; in the assay on A549 NSCLC, over 75.2 µM; in the assay with HOP-92 NSCLC, 53.1 µM; in the assay with COLO 205 colon it was over 100 µM; in the assay on SN12C renal, 40.4 µM; in the assay with MDA-MB-231 breast it was 35.7 µM. Besides, the TGI in the assay on T-47D breast is 4.24 µM; with 786-0 renal, 42.7 µM; in the assay on BT-549 breast it was 33.2 µM; in the assay on UACC-257 melanoma, 62.9 µM; in the assay with CAKI-1 renal it was 45 µM; in the assay with NCI-H460 lung, 58.6 µM. The TGI in the assay with LOX IMVI melanoma was 15.3 µM; in the assay on SNB-19 CNS, over 56.6 µM; in the assay on HS 578T breast, 32 µM; with SF-539 CNS it was 26.7 µM; in the assay on SK-OV-3 ovarian, 40.6 µM.
